As a reminder, the Tm is the temperature at the midpoint of the melting transition.

The subject of data set [1] is 25-base oligoribonucleotide of activated H-ras mRNA, mammalian RNase H. The experiment in a line: RNase H cleavage in vitro with HeLa nuclear extracts. It counts as biochemical, human. As to conditions: HeLa nuclear extracts as source of RNase H. As to the method: RNase H assays were performed using a chemically synthesized 25-base oligoribonucleotide corresponding to bases +23 to +47 of activated (codon 12, G→U) H-ras mRNA. The 5' end-labeled RNA was used at a concentration of 20 nM and incubated with a 10-fold molar excess of antisense oligonucleotide in a reaction containing 20 mM tris-Cl, pH 7.5, 100 mM KCl, 10 mM MgCl2, 1 mM dithiothreitol, 10 μg tRNA and 4 U RNasin in a final volume of 10 μl. The reaction components were preannealed at 37° C. for 15 Minutes then allowed to cool slowly to room temperature. HeLa cell nuclear extracts were used as a source of mammalian RNase H. Reactions were initiated by addition of 2 μg of nuclear extract (5 μl) and reactions were allowed to proceed for 10 Minutes at 37° C. Reactions were stopped by phenol/chloroform extraction and RNA components were precipitated with ethanol. Equal CPMs were loaded on a 20% polyacrylamide gel containing 7M urea and RNA cleavage products were resolved and visualized by electrophoresis followed by autoradiography. Quantitation of cleavage products was performed using a Molecular Dynamics Densitometer.

Data set [2] has as its system 47-mer H-ras RNA hairpin target. As to the kind of experiment: Gel shift assay. (A gel shift assay detects complexes by their altered migration in electrophoresis.)
Protocol: The structured ras target transcript, a 47-nucleotide hairpin containing the mutated codon 12, was prepared and mapped as described in Lima et al., Biochemistry 1991, 31, 12055-12061. Hybridization reactions were prepared in 20 μl containing 100 mM sodium, 10 mM phosphate, 0.1 mM EDTA, 100 CPM of T7-generated RNA (approximately 10 pM), and antisense oligonucleotide ranging in concentration from 1 pM to 10 μM. Reactions were incubated 24 hours at 37° C. Following hybridization, loading buffer was added to the reactions and reaction products were resolved on 20% native polyacrylamide gels, prepared using 45 mM tris-borate and 1 mM MgCl2 (TBM). Electrophoresis was carried out at 10° C. and gels were quantitated using a Molecular Dynamics Phosphorimager.
Data set [3] relates to 25-mer oligoribonucleotide complement (H-ras codon 12 RNA target). The experiment in a line: Melting curves, hybridization to 25-mer RNA target. It counts as binding, human. The procedure:
Absorbance vs temperature curves were measured at 260 nm using a Gilford 260 spectrophotometer interfaced to an IBM PC computer and a Gilford Response II spectrophotometer. The buffer contained 100 mM Na^+, 10 mM phosphate and 0.1 mM EDTA, pH 7. Oligonucleotide concentration was 4 μM each strand determined from the absorbance at 85° C. and extinction coefficients calculated according to Puglisi and Tinoco, Methods in Enzymol. 1989, 180, 304-325. Tm values, free energies of duplex formation and association constants were obtained from fits of data to a two state model with linear sloping baselines. Petersheim, M. and Turner, D.H., Biochemistry 1983, 22, 256-263. Reported parameters are averages of at least three experiments. For some oligonucleotides, free energies of duplex formation were also obtained from plots of Tm^-1 vs log10 (concentration). Borer, P.N., Dengler, B., Tinoco, I., Jr., and Uhlenbeck, O.C., J. Mol. Biol., 1974, 86, 843-853.

Data set [4] deals with mutant (activated, codon 12) H-ras RNA, ras-luciferase fusion reporter in HeLa cells. As to the kind of experiment: ras-luciferase reporter gene assay, mutant form.
Data set [5] has as its system full length H-ras mRNA (activated, codon 12). The experiment in a line: ras transactivation reporter gene system. As to conditions: Table 5, antisense activity against H-ras; listed as Deoxy. For orientation: In a reporter assay the amount or activity of a reporter protein is the signal.
The conditions of data set [6]: HeLa cell extract, 37° C.
Protocol: Oligonucleotides were incubated in crude HeLa cellular extracts at 37° C. to determine their sensitivity to nuclease degradation as described in Dignam et al., Nucleic Acids Res. 1983, 11, 1475-1489.
Data set [7] deals with ras mRNA in T24 cells (activated codon 12). As to the kind of experiment: Northern blot analysis of ras expression in T24 cells. It counts as cell-based, human. Details: inhibition of ras mRNA: concentration or dose not given beside the values. As to the method:
The human urinary bladder cancer cell line T24 was obtained from the American Type Culture Collection (Rockville Md.). Cells were grown in McCoy's 5 A medium with L-glutamine (Gibco BRL, Gaithersburg Md.), supplemented with 10% heat-inactivated fetal calf serum and 50 U/ml each of penicillin and streptomycin. Cells were seeded on 100 Mm plates. When they reached 70% confluency, they were treated with oligonucleotide. Plates were washed with 10 ml prewarmed PBS and 5 ml of Opti-MEM reduced-serum medium containing 2.5 μl DOTMA. Oligonucleotide was then added to the desired concentration. After 4 hours of treatment, the medium was replaced with McCoy's medium. Cells were harvested 48 hours after oligonucleotide treatment and RNA was isolated using a standard CsCl purification method.
(§1) Northern hybridization: 10 μg of each RNA was electrophoresed on a 1.2% agarose/formaldehyde gel and transferred overnight to GeneBind 45 nylon membrane (Pharmacia LKB, Piscataway, N.J.) using standard methods. […] RNA was UV-crosslinked to the membrane. Double-stranded ^32 P-labeled probes were synthesized using the Prime a Gene labeling kit (Promega, Madison Wis.). The ras probe was a SalI-NheI fragment of a cDNA clone of the activated (mutant) H-ras mRNA having a GGC-to-GTC mutation at codon-12. The control probe was G3PDH. Blots were prehybridized for 15 Minutes at 68° C. with the QuickHyb hybridization solution (Stratagene, La Jolla, Calif.). The heat-denatured radioactive probe (2.5×10^6 counts/2 ml hybridization solution) mixed with 100 μl of 10 Mg/ml salmon sperm DNA was added and the membrane was hybridized for 1 hour at 68° C. The blots were washed twice for 15 minutes at room temperature in 2× SSC/0.1% SDS and once for 30 minutes at 60° C. with 0.1XSSC/0.1%SDS. Blots were autoradiographed and the intensity of signal was quantitated using an ImageQuant PhosphorImager (Molecular Dynamics, Sunnyvale, Calif.). Northern blots were first hybridized with the ras probe, then stripped by boiling for 15 Minutes in 0.1× SSC/0.1%SDS and rehybridized with the control G3PDH probe to check for correct sample loading.

The subject of data set [8] is normal (wild type) H-ras RNA, ras-luciferase fusion reporter in HeLa cells. The experiment in a line: ras-luciferase reporter gene assay, normal form. As to conditions: read-out: IC50, inhibition of ras-luciferase activity; normal (unmutated) ras-luciferase, dose-response.
Data set [9] has as its system T24 cancer cells. As to the kind of experiment: Inhibition of proliferation of cancer cells. It counts as cell-based, human. The procedure:
Cells were seeded on 60 mm plates and were treated with oligonucleotide in the presence of DOTMA when they reached 70% confluency. Time course experiment: On day 1, cells were treated with a single dose of oligonucleotide at a final concentration of 100nM. The growth medium was changed once on day 3 and cells were counted every day for 5 days, using a counting chamber.

Data set [10] concerns ras mRNA in HeLa cells (wild-type H-ras codon 12). As to the kind of experiment: Northern blot analysis of ras expression in HeLa cells. It counts as cell-based, human. As to the method: HeLa cells were maintained as monolayers on 6-well plates in Dulbecco's Modified Eagle's medium (DMEM) supplemented with 10% fetal bovine serum and 100 U/ml penicillin. Treatment with oligonucleotide and isolation of RNA were essentially as described above for T24 cells.
as §1, with “Northern blots were first hybridized with the ras probe, then stripped by boiling for 15 Minutes in 0.1× SSC/0.1%SDS and rehybridized with the control G3PDH probe to check for correct sample loading.” left out

Entries after “also recorded” stand apart in the source; their conditions may differ.

For “CCACACCGACGGCGCCC (chemistry not given here) [compound 4122]”, the “ability to direct RNase H cleavage” value in [1] is recorded as “no cleavage was observed”. Further, the “binding to the hairpin target” value in data set [2] (listed as full 2'--O--methyl 17-mer) is “formed the most stable duplex”.

For the sequence “CCACACCGACGGCGCCC [2570] (phosphorothioate, further chemistry not given here) [compound 2570]”, the Tm in data set [3] (Table 5, 2'-modified 17-mer with 7-deoxy gap, 25-mer oligoribonucleotide complement) is 64.2 °C. Besides, the “ΔΔG°37” value in data set [3] (free energy difference between hybridization to mutant target and to wild type target) is recorded as “+1.8 kcal/mole”. Also, the “binding to the hairpin target” value in data set [2] (listed as full deoxy 17-mer) was “formed the least stable duplex”. In addition, the “selectivity for inhibition of mutant ras-luciferase relative to wild type” value in data set [4] (100 nM oligonucleotide) was “approximately 4 fold”. For the same sequence, the “selectivity toward the mutant form of ras-luciferase as compared to the normal form” value in data set [4] (at low concentrations) is listed as “approximately threefold”. Also, the “selectivity, mutant over wild type” value in data set [4] (dose-dependent experiment, FIG. 8) amounted to 5 fold. Moreover, the IC50 in data set [4] (read-out: IC50, inhibition of ras-luciferase activity, mutant ras-luciferase, dose-response) was about 100 nM; in data set [5] it was 150 nM; in data set [8] it was about 250 nM; in [9] (T24 cells, dose-response, counted 3 days later, read-out: IC50, cell proliferation), 98 nM. In data set [4] (single dose 0.5 μM), the “selectivity toward the mutated form of ras-luciferase” value is on record as “displayed selectivity toward the mutated form of ras-luciferase”. Besides, the “degradation” value in data set [6] is recorded as “no degradation after 5 hours”. Also, the “inhibition of ras expression” value was “inhibited ras expression in T24 cells; also recorded: decreased ras mRNA levels in T24 cells” in [7] and “did not inhibit ras expression in HeLa cells” in data set [10]. Moreover, the “inhibition of ras mRNA” value in data set [7] turned out to be 82%. Besides, the “inhibition of T24 cell proliferation relative to HeLa cells” value in data set [9] (100 nM oligonucleotide concentration) was “four times as severe”. The “inhibition of cell proliferation” value in data set [9] (T24 cells) is reported as 61%.

These data come from patent US5576208A, “Antisense oligonucleotide inhibition of the RAS gene” (priority 1994, dated 1996).
